Laboratory results as given in ChEMBL document CHEMBL5532635, “The role of natural anti-parasitic guided development of synthetic drugs for leishmaniasis” (Eur J Med Chem, 2023).
Converted amounts (≈) assume the structure as drawn.

Tests used:
Leishmania major [1] = assay: Antileishmanial activity against Leishmania major promastigotes incubated for 24 hrs measured by alamar blue staining based fluorescence analysis; format: functional, organism-based
Leishmania infantum [2] = assay: Antileishmanial activity against Leishmania infantum MCAN/ES/89/IPZ229/1/89 axenic amastigotes assessed as reduction in parasite viability treated for 24 hrs by PI staining based flow cytometry; format: functional, organism-based; conditions: MCAN/ES/89/IPZ229/1/89, 24 h
Leishmania major [3] = assay: Antileishmanial activity against Leishmania major promastigotes assessed as parasite growth inhibition incubated for 24 hrs by Alamar blue staining based assay; format: functional, organism-based
Leishmania donovani [4] = assay: Antileishmanial activity against Leishmania donovani promastigotes assessed as inhibition of parasite growth measured after 24 hrs by Alamar blue based analysis; format: functional, organism-based
Leishmania amazonensis [5] = assay: Antileishmanial activity against Leishmania amazonensis amastigotes assessed as reduction in parasite growth; format: functional, organism-based
Leishmania donovani [6] = assay: Antileishmanial activity against Leishmania donovani promastigotes assessed as reduction in parasite growth; format: functional, organism-based
Leishmania amazonensis [7] = assay: Antileishmanial activity against Leishmania amazonensis MHOM/BR/77/LTB001 assessed as parasite growth inhibition; format: functional, organism-based
Leishmania amazonensis [8] = assay: Antileishmanial activity against Leishmania amazonensis IFLA/BR/1967/PH8 amastigotes infected in mouse peritoneal macrophage assessed as inhibition of parasite growth measured after 24 hrs by Giemsa staining based analysis; format: functional, organism-based; conditions: IFLA/BR/1967/PH8, Peritoneal macrophage cell
Leishmania donovani [9] = assay: Antileishmanial activity against Leishmania donovani intracellular amastigotes assessed as parasite growth inhibition; format: functional, organism-based
Leishmania amazonensis [10] = assay: Antileishmanial activity against Leishmania amazonensis promastigotes assessed as inhibition of parasite growth measured after 72 hrs by alamar blue assay; format: functional, organism-based
Leishmania amazonensis [11] = assay: Antileishmanial activity against Leishmania amazonensis amastigotes assessed as reduction in parasite growth measured after 24 hrs by MTT assay; format: functional, organism-based
Leishmania infantum [12] = assay: Antileishmanial activity against Leishmania infantum MHOM/BR/1972/BH46 promastigotes assessed as reduction in parasite growth incubated for 24 hrs by PI staining based flow cytometry analysis; format: functional, organism-based; conditions: MHOM/BR/1972/BH46, 24 h
Leishmania infantum [13] = assay: Antileishmanial activity against Leishmania infantum MCAN/ES/89/IPZ229/1/89 promastigote measured after 72 hrs by MTT assay; format: functional, organism-based; conditions: MCAN/ES/89/IPZ229/1/89, 72 h
Leishmania amazonensis [14] = assay: Antileishmanial activity against Leishmania amazonensis MHOM/BR/71973/M2269 promastigotes assessed as reduction in parasite growth incubated for 24 hrs by PI staining based flow cytometry analysis; format: functional, organism-based; conditions: MHOM/BR/71973/M2269, 24 h
Leishmania major [15] = assay: Antileishmanial activity against Leishmania major promastigotes assessed as inhibition of parasite growth incubated for 48 hrs by resazurin dye based assay; format: functional, organism-based
Leishmania major [16] = assay: Antileishmanial activity against Leishmania major IR-173 promastigotes assessed as inhibition of parasite growth incubated for 48 hrs by resazurin dye based assay; format: functional, organism-based; conditions: IR-173, 48 h
Leishmania major [17] = assay: Antileishmanial activity against Leishmania major IR-173 promastigotes assessed as inhibition of parasite viability incubated for 72 hrs by resazurin/alamar blue fluorometric assay; format: functional
Leishmania tropica [18] = assay: Antileishmanial activity against Leishmania tropica amastigotes incubated for 24 hrs measured by alamar blue staining based fluorescence analysis; format: functional, organism-based
Leishmania tropica [19] = assay: Antileishmanial activity against Leishmania tropica promastigotes incubated for 24 hrs measured by alamar blue staining based fluorescence analysis; format: functional, organism-based
Arginase = Arginase (Leishmania amazonensis, UniProt O96394); assay: Inhibition of Leishmania amazonensis Arginase expressed in Escherichia coli BL21 (DE3)
Leishmania amazonensis [20] = assay: Antileishmanial activity against Leishmania amazonensis promastigotes assessed as reduction in parasite growth measured after 24 hrs by MTT assay; format: functional, organism-based
[21] = Cytotoxicity against mouse RAW264.7 cells assessed as reduction in cell viability measured after 24 hrs by CCK8 assay; format: toxicity, cell-based
Leishmania infantum [22] = assay: Antileishmanial activity against Leishmania infantum MHOM/BR/70/BH46 promastigotes assessed as inhibition of parasite growth incubated for 72 hrs by Neubauer chamber based analysis; format: functional, organism-based; conditions: MHOM/BR/70/BH46, 72 h
Leishmania donovani [23] = assay: Antileishmanial activity against Leishmania donovani promastigotes assessed as reduction in parasite growth incubated for 72 hrs by MTT assay; format: functional, organism-based
[24] = Antileishmanial activity against Leishmania donovani MHOM/IN/95/9515 promastigotes assessed as inhibition of parasite viability incubated for 72 hrs by resazurin/alamar blue fluorometric assay; format: functional

CCOC(=O)C1=C(C)NC(C)=C(C(=O)OCC)C1c1cccc(Cl)c1
EC50 (Leishmania major [1]): 15.5 µM

Cn1c(=O)c2c(c3ccccc31)OC(C)(C)[C@H]1CC[C@@](C)(O)[C@H](Cl)[C@H]21
IC50 (Leishmania infantum [2]): > 6.25 µM

C[C@@H]1CC[C@@]2(C)C(C(=O)O)=CCC[C@@H]2[C@@]1(C)CCc1ccoc1
IC50 (Leishmania major [3]): 10 µM
IC50 (Leishmania donovani [4]): 10 µM

CN[C@@H]1C[C@H]2O[C@@](C)([C@@H]1OC)n1c3ccccc3c3c4c(c5c6ccccc6n2c5c31)C(=O)NC4=O
IC50 (Leishmania amazonensis [5]): 0.0002 µM
IC50 (Leishmania donovani [6]): 0.001 µM
IC50 (Leishmania amazonensis [7]): 0.007 µM

O=C(CC[Se]c1ccnc2cc(Cl)ccc12)Nc1ccc([N+](=O)[O-])cc1
IC50 (Leishmania amazonensis [8]): 10.8 µM

CCCCCCCCNCc1ccc2c(c1)C(=O)CC(C)(C)O2
IC50 (Leishmania donovani [9]): 24.6 µM

CCCc1cc(OC)c2oc(=O)c(C(=O)c3ccc([N+](=O)[O-])cc3)cc2c1
IC50 (Leishmania amazonensis [10]): 18 µM
IC50 (Leishmania amazonensis [11]): 18 µM
IC50 (Leishmania infantum [12]): 3.53 µM
IC50 (Leishmania infantum [13]): 6.8 µM
IC50 (Leishmania amazonensis [14]): 26.7 µM

CCC[C@H]1CC(=O)Oc2c(C(=O)[C@H](C)[C@H](C)O)c(O)c3c(c21)OC(C)(C)C=C3
IC50 (Leishmania major [15]): 29.1 µg/mL (≈ 74.9 µM)
IC50 (Leishmania major [16]): 36.5 µg/mL (≈ 94 µM)

O=C(Cn1cnc2ccccc2c1=O)N1CCC2(CC1)OCCO2
Activity (Leishmania major [17]): 35%

Cc1ccccc1C(=O)N/N=C1\C(=O)N(CC(O)COc2cc(=O)oc3ccccc23)c2ccccc21 (configuration not stated)
IC50 (Leishmania tropica [18]): 4.13 µM
IC50 (Leishmania tropica [19]): 3.73 µM

O=C(CCc1ccc(O)c(O)c1)O[C@H](Cc1ccc(O)cc1)C(=O)O
IC50 (Arginase): 5.5 µM

COc1ccc(C(O)C(C)Oc2ccc(C3OC(c4ccc(OC(C)C(O)c5ccc(OC)c(OC)c5)c(OC)c4)C(C)C3C)cc2OC)cc1OC (configuration not stated)
IC50 (Leishmania amazonensis [11]): 20.4 µg/mL
IC50 (Leishmania amazonensis [20]): 35.4 µg/mL (≈ 48.3 µM)

O=C(/C=C/c1ccc(F)cc1)c1ccccc1Cl
CC50 at 24 h [21]: 479 µM

CCc1ccc(NC(=S)N/N=C\c2c[nH]c3c(C)cc(Br)cc23)cc1
IC50 (Leishmania infantum [22]): 4.36 µM

COc1ccc2nc(C(=O)NCCCN(C)C)ccc2c1
IC50 (Leishmania amazonensis [8]): 5.67 µM

CCOC(=O)C1=CNC(=S)NC1c1ccc(C)cc1 (configuration not stated)
IC50 (Leishmania donovani [23]): 28.3 µg/mL (≈ 102 µM)

O=C(Cn1cnc2cc(Cl)ccc2c1=O)n1cnc2cc(Cl)ccc2c1=O
Activity [24]: 29%
